Values quoted from earlier work in US8735422B2, “Cationic pharmaceutically active ingredient containing composition, and methods for manufacturing and using” (Skinvisible Pharmaceuticals, Inc., priority 2009, dated 2014).
Where two headings read alike, the source gives them in different places.

Experiments:
[1] = in vivo
[2] = Table 4, value used for the calculation

Compound | pK1 (Table 1) | further results
CC(=O)O [Acetic Acid] | 4.76 | 
O=C(O)c1ccccc1 [Benzoic Acid] | 4.21 | 
O=C(O)CCCCCCCCCCC(=O)O [Dodecandioic] | 4.5 | pK2 (Table 1): 4.5
O=C(O)[C@H](O)[C@@H](O)[C@H](O)[C@H](O)CO [Gluconic Acid] | 3.86 | 
CC(C)Cn1cnc2c(N)nc3ccccc3c21 [Imiquimod, reference compound] |  | pK [2]: 4.49
CCCCCCCCCCCC(=O)O [Lauric Acid] | 5.3 | pK: 5.3; pK [2]: 5.30
CCCCCCCCCCCCCCCCCC(=O)O [Stearic Acid] | 7.0 | 
Poly(vinylpyrrolidone/1-eicosene) [PVPE] |  | dermal toxicity [1]: no demonstrable dermal toxicity
Poly(vinylpyrrolidone/1-hexadecene) [PVPH] |  | dermal toxicity [1]: no demonstrable dermal toxicity
